Reference: US20260034116A1, “CANCER COMBINATION THERAPY INCLUDING A BCL-2 INHIBITOR” (RYVU THERAPEUTICS S.A., priority 2022, published 2026)
Like-named read-outs stand apart in the source and are kept apart here.

Experiments:
[1] = tested on: MV4-11 cells (FLT3 ITD); assay: in vitro standard cytotoxicity experiment (MTS), 72 h, MEN with S65487 or AZD4320; type: cell-based, human; details: single agent
Protocol: (§1) In an in vitro standard cytotoxicity experiment, two AML cell lines (MOLM-13 [FLT3 ITD] and MV4-11 [FLT3 ITD]) were treated for 72 hours with MEN and S65487 either as a single agent or in combination.
(§2) In an in vitro standard cytotoxicity experiment, two AML cell lines (MOLM-13 [FLT3 ITD] and MV4-11 [FLT3 ITD]) were treated for 72 hours with MEN and AZD4320 either as a single agent or in combination.
(§3) Human acute myeloid leukemia cell lines MV4-11 and MOLM-13 were obtained from DSMZ, Braunschweig, Germany (ACC102 and ACC554). MV4-11 cells were cultured in RPMI 1640 medium (Gibco, Life Technologies, Carlsbad, CA, USA) supplemented with 10% fetal bovine serum (FBS) (Sigma, Saint Louis, CA, USA). MOLM-13 cells were grown in RPMI with 20% FBS. All cells were incubated at 37° C., 5% CO2, 80% relative humidity.
(§4) MEN1703 (alternatively referred to as “Men”, “MEN”, “MEN1703” or “SEL24/MEN1703”), in the HCl-salt form (CAS number 2769008-22-) with the IUPAC name 5,6-dibromo-4-nitro-2-(piperidin-4-yl)-1-(propan-2-yl)-1H-1,3-benzodiazole-4-amine hydrochloride (batch no. A/2201/24/1)), synthesized at Aptuit (VR); AZD4320 from MedChem Express, Monmouth Junction, NJ, USA, batch no. 64354) and S65487 from MedChem Express, Monmouth Junction, NJ, USA were dissolved in DMSO, divided into aliquots and stored at −80° C. until use. Stock solutions were added at appropriate concentration in culture medium before the addition to cells.
(§5) For cytotoxicity studies cells were seeded at appropriate density (50,000 cells/well) prior to addition of MEN and Quiz at day 0. The concentration range was previously identified in single agent cytotoxicity assays for the same time points in order to include in the combination experiment the IC10, IC25, IC50 and IC75 values for each drug and for each AML cell lines (see Tables 4 to 7). After 72 hours, CellTiter 96 Aqueous One Solution Reagent (MTS) (Promega, Madison. WI, USA) was added to assess the cell viability. […] was measured 4 h later using Tecan Infinite M200 (Tecan Trading AG, Switzerland), recording absorbance at 490 nm. Quantitative measurement of synergism/antagonism was evaluated with Combination Index (CI) on the Fraction affected (Fa) using CompuSyn (ComboSyn, Inc. Paramus, NJ, USA) (Chou TC, 2006).

[2] = tested on: MOLM-13 cells (FLT3 ITD); assay: as above; type: cell-based, human; details: single agent
Protocol: as §1, §2, §3, §4, §5

[3] = tested on: MV4-11 cells (FLT3 ITD); assay: in vitro standard cytotoxicity assay (MTS), Ven and/or 5-Aza 48 h followed by Men 24 h; type: cell-based, human; details: single agent cytotoxic assay, same time points as combination; for IC50: read-out: IC50 dose level
Protocol: (§6) In an in vitro standard cytotoxicity assay, three AML cell lines (KG1 [FLT3 wt], MV4-11 [FLT3 ITD] and MOLM-13 [FLT3 ITD]) were treated with Ven and/or 5-Aza for 48 hours, followed by Men treatment for additional 24 hours. […] In MOLM13 cells (FLT3 ITD), the CI of the triple combination was similar to the CIs of the Men-Ven and the VenAza combinations (see Table 3).
as §3, with “lines KG-1,” for “lines”, “(ACC14, ACC102” for “(ACC102”, “ACC554). KG-1 and” for “ACC554).”, “humidity. The human acute myeloid leukemia cell line MOLM-16 was obtained from DSMZ, Braunschweig, Germany (cell line number ACC-555. MOLM-16 cells were grown in RPMI with 20% FBS (Sigma, Saint Louis, CA, USA). Cells were incubated at 37° C., 5% CO2, 80% relative humidity.” for “humidity.”
(§7) Men (alternatively referred to as “MEN1703”, in the HCI-salt form (CAS number 2769008-22-) with the IUPAC name 5,6-dibromo-4-nitro-2-(piperidin-4-yl)-1-(propan-2-yl)-1H-1,3-benzodiazole-4-amine hydrochloride (batch no. A/2201/24/1)), synthesized at Aptuit (VR) and Venetoclax (alternatively referred to as “Ven” or “ABT-199”, ChemCruz no. SC-472284A) were dissolved in DMSO, divided into aliquots and stored at-80° C. until use. Stock solutions were added at appropriate concentration in culture medium before the addition to cells. […] A stock solution was added at appropriate concentration in culture medium before the addition to cells.
(§8) For cytotoxicity studies cells were seeded at appropriate density (50.000 cells/well) prior to addition of Ven and 5-Aza at day 0. 5-Aza was added every 24 hours due to degradation (Hollen-bach PW, 2010 and Chang E, 2016). Then, after 48 hours, Men was added to cultured cells for the final 24 h (overall, a period of 72 h was tested). The concentration range was previously identified in single agent cytotoxic assay for the same time points in order to include in the combination experiment the IC10, IC25, IC50 and IC75 values for each drug and for each AML cell lines (see Tables 1 to 3). All possible combinations were assessed: Men+Ven, Ven+5-Aza, Men+5-Aza and men+5-Aza+Ven (mav). After 72 hours, CellTiter 96 Aqueous One Solution Reagent (MTS) (Promega, Madison. WI, USA) was added to assess the cell viability. […] was measured 4h later using Tecan Infinite M200 (Tecan Trading AG, Switzerland), recording absorbance at 490 nm. Quantitative measurement of synergism/antagonism was evaluated with Combination Index (CI) on the Fraction affected (Fa) using CompuSyn (ComboSyn, Inc. Paramus, NJ, USA) (Chou TC, 2006).

[4] = tested on: MOLM-13 cells (FLT3 ITD); assay: as above; type: cell-based, human; details: MOLM13 cells, single agent cytotoxic assay, same time points as combination; for IC50: read-out: IC50 dose level
Protocol: as §6
as §3, with “lines KG-1,” for “lines”, “(ACC14, ACC102” for “(ACC102”, “ACC554). KG-1 and” for “ACC554).”, “humidity. The human acute myeloid leukemia cell line MOLM-16 was obtained from DSMZ, Braunschweig, Germany (cell line number ACC-555. MOLM-16 cells were grown in RPMI with 20% FBS (Sigma, Saint Louis, CA, USA). Cells were incubated at 37° C., 5% CO2, 80% relative humidity.” for “humidity.”
as §7, §8

[5] = tested on: KG1 cells (FLT3 wt); assay: as above; type: cell-based, human; details: same time points as combination; for IC50: read-out: IC50 dose level
Protocol: as §6
as §3, with “lines KG-1,” for “lines”, “(ACC14, ACC102” for “(ACC102”, “ACC554). KG-1 and” for “ACC554).”, “humidity. The human acute myeloid leukemia cell line MOLM-16 was obtained from DSMZ, Braunschweig, Germany (cell line number ACC-555. MOLM-16 cells were grown in RPMI with 20% FBS (Sigma, Saint Louis, CA, USA). Cells were incubated at 37° C., 5% CO2, 80% relative humidity.” for “humidity.”
as §7, §8

[6] = tested on: AML; details: single agent in AML treatment; cited from earlier work
[7] = tested on: broad panel of AML cell lines in xenograft models; details: in vivo; cited from earlier work
[8] = Homo sapiens, KG-1, single agent cytotoxic assay

| SMILES | IC10 [1] | IC25 [1] | IC50 [1] | IC75 [1] | IC10 [2] | IC25 [2] | IC50 [2] | IC75 [2] | IC50 ([3]; Homo sapiens) | IC10 dose level [3] | IC25 dose level [3] | IC75 dose level [3] | IC50 ([4]; Homo sapiens, MOLM-13) | IC10 dose level [4] | IC25 dose level [4] | IC75 dose level [4] | IC50 [5, 8] | IC10 dose level ([5]; single agent cytotoxic assay) | IC25 dose level ([5]; single agent cytotoxic assay) | IC75 dose level ([5]; single agent cytotoxic assay) | also measured |
| --- | --- | --- | --- | --- | --- | --- | --- | --- | --- | --- | --- | --- | --- | --- | --- | --- | --- | --- | --- | --- | --- |
| CN(CCO)CC[C@H](CSc1ccccc1)Nc1ccc(S(=O)(=O)NC(=O)c2ccc(N3CCC([C@@H](O)c4ccccc4-c4ccc(Cl)cc4)CC3)cc2)cc1S(=O)(=O)C(F)(F)F [AZD4320] | 0.00065 µM | 0.0013 µM | 0.0027 µM | 0.0055 µM | 0.0034 µM | 0.0110 µM | 0.037 µM | 0.1200 µM | – | – | – | – | – | – | – | – | – | – | – | – | – |
| CC1(C)CCC(CN2CCN(c3ccc(C(=O)NS(=O)(=O)c4ccc(NCC5CCOCC5)c([N+](=O)[O-])c4)c(Oc4cnc5[nH]ccc5c4)c3)CC2)=C(c2ccc(Cl)cc2)C1 [Ven, Venetoclax] | – | – | – | – | – | – | – | – | 0.003 µM | 0.000276 µM | 0.000829 µM | 0.007 µM | 0.45 µM | 0.012 µM | 0.075 µM | 2.77 µM | 1.65 µM | 0.18 µM | 0.55 µM | 4.95 µM | safety [6]: safe |
| CC(C)n1c(C2CCNCC2)nc2c([N+](=O)[O-])c(Br)c(Br)cc21 [Men, 5,6-dibromo-4-nitro-2-(piperidin-4-yl)-1-(pro-pan-2-yl)-1H-1,3-benzodiazole] | 0.01315 µM | 0.0350 µM | 0.093 µM | 0.2486 µM | 0.08729 µM | 0.2111 µM | 0.51 µM | 1.234 µM | – | 0.006 µM | 0.048 µM | 2.77 µM | – | 0.04 µM | 0.28 µM | 10.88 µM | – | 0.151 µM | 0.293 µM | 1.103 µM | growth of AML cell lines in xenograft models [7]: inhibit the growth of a broad panel of AML cell lines in xenograft models; IC50 [3]: 0.366 µM; IC50 [4]: 1.73 µM; IC50 ([5]; single agent cytotoxic assay): 0.569 µM |
| Nc1ncn([C@@H]2O[C@H](CO)[C@@H](O)[C@H]2O)c(=O)n1 [Aza, 5-Azacitidine] | – | – | – | – | – | – | – | – | 0.65 µM | 0.14 µM | 0.3 µM | 1.41 µM | 0.96 µM | 0.083 µM | 0.28 µM | 3.28 µM | 0.76 µM | 0.097 µM | 0.27 µM | 2.15 µM | – |
| Cc1c(N(C(=O)c2cc(-c3cc(Cl)ccc3C(=O)N3Cc4ccccc4C[C@H]3CN3CCOCC3)n(C)c2C)c2ccc(O)cc2)cc(C#N)n1C [S65487] | 0.0025 µM | 0.0066 µM | – | 0.0480 µM | 0.0145 µM | 0.0570 µM | – | 0.8800 µM | – | – | – | – | – | – | – | – | – | – | – | – | IC50 ([1]; Homo sapiens): 0.018 µM; IC50 ([2]; Homo sapiens): 0.225 µM |
